Experimental data reported in US20090253644A1, “Radiosensitizer” (TOYO SUISAN KAISHA, LTD., priority 2004, published 2009).

System: SAS cells
Assay: Colony assay on SAS cells
Assay type: cell-based, human
Settings: same colony assay as Exp. Ex. 2-1 and 2-2

CCCCCCCCCCCCCCCCCC(=O)OCC(O)CO[C@H]1O[C@H](CS(=O)(=O)[O-])[C@@H](O)[C@H](O)[C@H]1O.[Na+] (stereo partly drawn) [α-SQMG C18:0, 3-O-(6-deoxy-6-sulfo-α-D-glucopyranosyl)-1-O-stearoyl-glycerol sodium salt]
cell proliferation suppressing effect on SAS cells: did not exert a cell proliferation suppressing effect
